Assay results: patent US9763942B2, “Serine/threonine kinase inhibitors” (Array BioPharma Inc., priority 2013, dated 2017)
Read-outs that look alike come from different tables or passages of the source.

Target: T1, human ERK-2 (Mitogen Activated Kinase 1) (Homo sapiens, UniProt P28482)
T1 construct: n-terminal 6-His fusion protein in E. coli and corresponding to aa 8-360; 6-His (N); made in house; host or cells: E. coli
Assay: ERK-2 Enzymatic Assay
Type: biochemical
Text: Table 1 contains representative data for Examples disclosed herein.

[1] = ERK-2 enzymatic assay, read-out: IC50

T1 sequence (P28482 8-360): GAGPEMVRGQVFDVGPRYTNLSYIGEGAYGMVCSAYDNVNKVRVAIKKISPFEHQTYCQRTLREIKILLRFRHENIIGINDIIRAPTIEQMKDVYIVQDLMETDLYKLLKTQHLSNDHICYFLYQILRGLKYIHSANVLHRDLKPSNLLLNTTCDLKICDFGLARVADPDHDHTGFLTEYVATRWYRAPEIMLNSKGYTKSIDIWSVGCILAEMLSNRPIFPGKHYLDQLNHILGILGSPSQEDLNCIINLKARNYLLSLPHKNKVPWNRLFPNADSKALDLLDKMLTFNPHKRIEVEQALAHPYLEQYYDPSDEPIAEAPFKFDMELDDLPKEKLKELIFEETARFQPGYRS

Compound | IC50 [1] | IC50 (5 nM ERK-2 enzyme, 25 μM ATP (observed Km), Omnia peptide S/T17, single assay or mean of multiple assays, read-out: Biological Example 1 IC50)
Cn1nccc1Nc1nccc(-c2ccc3c(c2)nnn3[C@H]2CNCC(F)(F)C2)n1 [Example 79, (R)-4-(1-(5,5-difluoropiperidin-3-yl)-1H-benzo[d][1,2,3]triazol-5-yl)-N-(1-methyl-1H-pyrazol-5-yl)pyrimidin-2-amine] | < 100 nM | –
CC(C)N1CC(n2nnc3cc(-c4ccnc(Nc5ccnn5C)n4)ccc32)[C@H](c2cc(F)cc(F)c2)C1 (stereo partly shown) [Example 80] | < 100 nM | –
COc1ncc(F)cc1N1CC[C@H](n2nnc3cc(-c4ccnc(Nc5ccnn5C)n4)ccc32)C1 [Example 81, (S)-4-(1-(1-(5-fluoro-2-methoxypyridin-3-yl)pyrrolidin-3-yl)-1H-benzo[d][1,2,3]triazol-5-yl)-N-(1-methyl-1H-pyrazol-5-yl)pyrimidin-2-amine] | – | 511 nM
Cc1cc(-n2nnc3cc(-c4ccnc(Nc5ccnn5C)n4)ccc32)n(-c2ccccn2)n1 [Example 82, 4-(1-(3-methyl-1-(pyridin-2-yl)-1H-pyrazol-5-yl)-1H-benzo[d][1,2,3]triazol-5-yl)-N-(1-methyl-1H-pyrazol-5-yl)pyrimidin-2-amine] | < 100 nM | –
COCCN1C[C@H](c2ccc(F)cc2)[C@@H](n2nnc3cc(-c4ccnc(Nc5ccnn5C)n4)ccc32)C1 [Example 83, 4-(1-((3R,4S)-4-(4-fluorophenyl)-1-(2-methoxyethyl)pyrrolidin-3-yl)-1H-benzo[d][1,2,3]triazol-5-yl)-N-(1-methyl-1H-pyrazol-5-yl)pyrimidin-2-amine] | < 100 nM | –
COCCN1C[C@@H](n2nnc3cc(-c4ccnc(Nc5ccnn5C)n4)ccc32)[C@H](c2ccc(F)cc2)C1 [Example 87, 4-(1-((3S,4R)-4-(4-fluorophenyl)-1-(2-methoxyethyl)pyrrolidin-3-yl)-1H-benzo[d][1,2,3]triazol-5-yl)-N-(1-methyl-1H-pyrazol-5-yl)pyrimidin-2-amine] | < 100 nM | –
COc1cccc(F)c1CN1CC(n2nnc3cc(-c4ccnc(Nc5ccnn5C)n4)ccc32)C1 [Example 88, 4-(1-(1-(2-fluoro-6-methoxybenzyl)azetidin-3-yl)-1H-benzo[d][1,2,3]triazol-5-yl)-N-(1-methyl-1H-pyrazol-5-yl)pyrimidin-2-amine] | < 100 nM | –
Cn1nccc1Nc1nccc(-c2ccc3c(c2)nnn3C2CNCCC2c2cccc(F)c2)n1 (stereo not shown) [Example 89, 4-(1-(4-(3-fluorophenyl)piperidin-3-yl)-1H-benzoyl[d][1,2,3]triazol-5-yl)-N-(1-methyl-1H-pyrazol-5-yl)pyrimidin-2-amine] | < 100 nM | –
Cn1nccc1Nc1nccc(-c2ccc3c(c2)nnn3C2CNCCC2c2ccc(F)cc2)n1 (stereo not shown) [Example 90, 4-(1-(4-(4-fluorophenyl)piperidin-3-yl)-1H-benzo[d][1,2,3]triazol-5-yl)-N-(1-methyl-1H-pyrazol-5-yl)pyrimidin-2-amine] | < 100 nM | –
CN(C)CC(c1ccc(Cl)c(F)c1)n1nnc2cc(-c3ccnc(Nc4ccnn4C)n3)ccc21 (stereo not shown) [Example 91, 4-(1-(1-(4-chloro-3-fluorophenyl)-2-(dimethylamino)ethyl)-1H-benzo[d][1,2,3]triazol-5-yl)-N-(1-methyl-1H-pyrazol-5-yl)pyrimidin-2-amine] | < 100 nM | –
Cn1nccc1Nc1nccc(-c2ccc3c(c2)nnn3C(CN2CCCC2)c2ccc(Cl)c(F)c2)n1 (stereo not shown) [Example 92, 4-(1-(1-(4-chloro-3-fluorophenyl)-2-(pyrrolidin-1-yl)ethyl)-1H-benzo[d][1,2,3]triazol-5-yl)-N-(1-methyl-1H-pyrazol-5-yl)pyrimidin-2-amine] | < 100 nM | –
Cn1nccc1Nc1nccc(-c2ccc3c(c2)nnn3[C@H](CO)c2ccc(Cl)c(F)c2)n1 [Example 93, (S)-2-(4-chloro-3-fluorophenyl)-2-(5-(2-((1-methyl-1H--pyrazol-5-yl)amino)pyrimidin-4-yl)-1H-benzo[d][1,2,3]triazol-1-yl)ethanol] | < 100 nM | –
Cn1nccc1Nc1nccc(-c2ccc3c(c2)nnn3[C@@H](CO)c2ccc(Cl)c(F)c2)n1 [Example 94, (R)-2-(4-chloro-3-fluorophenyl)-2-(5-(2-((1-methyl-1H-pyrazol-5-yl)amino)pyrimidin-4-yl)-1H-benzo[d][1,2,3]triazol-1-yl)ethanol] | < 100 nM | –
COc1ccc([C@@H](CO)n2nnc3cc(-c4ccnc(Nc5ccnn5C)n4)ccc32)cc1F [Example 95, (S)-2-(3-fluoro-4-methoxyphenyl)-2-(5-(2-((1-methyl-1H-pyrazol-5-yl)amino)pyrimidin-4-yl)-1H-benzo[d][1,2,3]triazol-1-yl)ethanol] | < 100 nM | –
CCC(C)Cn1nnc2cc(-c3ccnc(Nc4cnn(C)c4)n3)ccc21 (stereo not shown) [Example 96, N-(1-methyl-1H-pyrazol-4-yl)-4-(1-(2-methylbutyl)-1H-benzo[d][1,2,3]triazol-5-yl)pyrimidin-2-amine] | < 100 nM | –
CC(C)Cn1nnc2cc(-c3ccnc(Nc4cnn(C)c4)n3)ccc21 [Example 97, 4-(1-isobutyl-1H-benzo[d][1,2,3]triazol-5-yl)-N-(1-methyl-1H-pyrazol-4-yl)pyrimidin-2-amine] | < 100 nM | –
CCC(C)Cn1nnc2cc(-c3ccnc(N[C@@H](C)CO)n3)ccc21 (stereo partly drawn) [Example 98, (2S)2-((4-(1-(2-methylbutyl)-1H-benzo[d][1,2,3]triazol-5-yl)pyrimidin-2-yl)amino)propan-1-ol] | < 100 nM | –

Results, then the compound that gave them:

IC50 [1] | IC50 (5 nM ERK-2 enzyme, 25 μM ATP (observed Km), Omnia peptide S/T17, single assay or mean of multiple assays, read-out: Biological Example 1 IC50) | Compound
< 100 nM | – | CC(C)Cn1nnc2cc(-c3ccnc(Nc4cnn(C)n4)n3)ccc21 [Example 99, 4-(1-isobutyl-1H-benzo[d][1,2,3]triazol-5-yl)-N-(2-methyl-2H-1,2,3-triazol-4-yl)pyrimidin-2-amine]
< 100 nM | – | CCC(C)Cn1nnc2cc(-c3ccnc(Nc4cnn(C)n4)n3)ccc21 (stereo not shown) [Example 100, N-(2-methyl-2H-1,2,3-triazol-4-yl)-4-(1-(2-methylbutyl)-1H-benzo[d][1,2,3]triazol-5-yl)pyrimidin-2-amine]
< 100 nM | – | Cn1nccc1Nc1nccc(-c2ccc3c(c2)nnn3CC2CCCCO2)n1 (stereo not shown) [Example 101, N-(1-methyl-1H-pyrazol-5-yl)-4-(1-((tetrahydro-2H-pyran-2-yl)methyl)-1H-benzoyl[d][1,2,3]triazol-5-yl)pyrimidin-2-amine]
< 100 nM | – | CC(C)OCCCn1nnc2cc(-c3ccnc(Nc4ccnn4C)n3)ccc21 [Example 102, 4-(1-(3-isopropoxypropyl)-1H-benzo[d][1,2,3]triazol-5-yl)-N-(1-methyl-1H-pyrazol-5-yl)pyrimidin-2-amine]
< 100 nM | – | Cc1cnn(CCn2nnc3cc(-c4ccnc(Nc5ccnn5C)n4)ccc32)c1 [Example 103, 4-(1-(2-(4-methyl-1H-pyrazol-1-yl)ethyl)-1H-benzo[d][1,2,3]triazol-5-yl)-N-(1-methyl-1H-pyrazol-5-yl)pyrimidin-2-amine]
< 100 nM | – | COc1cccc(F)c1CN1CCC[C@@H](n2nnc3cc(-c4ccnc(Nc5ccnn5C)n4)ccc32)C1 [Example 105, (R)-4-(1-(1-(2-fluoro-6-methoxybenzyl)piperidin-3-yl)-1H-benzo[d][1,2,3]triazol-5-yl)-N-(1-methyl-1H-pyrazol-5-yl)pyrimidin-2-amine]
< 100 nM | – | COc1cccc(F)c1CN1C[C@H](n2nnc3cc(-c4ccnc(Nc5ccnn5C)n4)ccc32)CC(F)(F)C1 [Example 106, (R)-4-(1-(5,5-difluoro-1-(2-fluoro-6-methoxybenzyl)piperidin-3-yl)-1H-benzo[d][1,2,3]triazol-5-yl)-N-(1-methyl-1H-pyrazol-5-yl)pyrimidin-2-amine]
< 100 nM | – | Fc1cccc(Cn2nnc3cc(-c4ccnc(NC5CCOCC5)n4)ccc32)c1 [Example 107, 4-(1-(3-fluorobenzyl)-1H-benzo[d][1,2,3]triazol-5-yl)-N-(tetrahydro-2H-pyran-4-yl)pyrimidin-2-amine]
< 100 nM | – | Cn1nccc1Nc1nccc(-c2ccc3c(c2)nnn3Cc2ccc(Cl)c(F)c2)n1 [Example 108, 4-(1-(4-chloro-3-fluorobenzyl)-1H-benzo[d][1,2,3]triazol-5-yl)-N-(1-methyl-1H-pyrazol-5-yl)pyrimidin-2-amine]
< 100 nM | – | Fc1cc(Cn2nnc3cc(-c4ccnc(NC5CCOCC5)n4)ccc32)ccc1Cl [Example 109, 4-(1-(4-chloro-3-fluorobenzyl)-1H-benzo[d][1,2,3]triazol-5-yl)-N-(tetrahydro-2H-pyran-4-yl)pyrimidin-2-amine]
< 100 nM | – | COc1ccc(Cn2nnc3cc(-c4ccnc(NC5CCOCC5)n4)ccc32)cc1F [Example 110, 4-(1-(3-fluoro-4-methoxybenzyl)-1H-benzo[d][1,2,3]triazol-5-yl)-N-(tetrahydro-2H-pyran-4-yl)pyrimidin-2-amine]
< 100 nM | – | Fc1ccc(Cn2nnc3cc(-c4ccnc(NC5CCOCC5)n4)ccc32)cc1 [Example 111, 4-(1-(4-fluorobenzyl)-1H-benzo[d][1,2,3]triazol-5-yl)-N-(tetrahydro-2H-pyran-4-yl)pyrimidin-2-amine]
< 100 nM | – | Clc1ccc(Cn2nnc3cc(-c4ccnc(NC5CCOCC5)n4)ccc32)cc1 [Example 112]
< 100 nM | – | COc1ccc(Cn2nnc3cc(-c4ccnc(Nc5ccnn5C)n4)ccc32)cc1F [Example 113, 4-(1-(3-fluoro-4-methoxybenzyl)-1H-benzol[d][1,2,3]triazol-5-yl)-N-(1-methyl-1H-pyrazol-5-yl)pyrimidin-2-amine]
< 100 nM | – | CC(C)Cn1nnc2cc(-c3ccnc(Nc4ccnn4C)n3)cnc21 [Example 114, 4-(3-isobutyl-3H-[1,2,3]triazolo[4,5-b]pyridin-6-yl)-N-(1-methyl-1H-pyrazol-5-yl)pyrimidin-2-amine]
< 100 nM | – | Cn1nccc1Nc1cc(-c2cnc3c(c2)nnn3Cc2cccc(Cl)c2)ccn1 [Example 115, 4-(3-(3-chlorobenzyl)-3H-[1,2,3]triazolo[4,5-b]pyridin-6-yl)-N-(1-methyl-1H-pyrazol-5-yl)pyridin-2-amine]
< 100 nM | – | Cn1nccc1Nc1nccc(-c2cnc3c(c2)nnn3Cc2ccc(Cl)cc2)n1 [Example 116, 4-(3-(4-chlorobenzyl)-3H-[1,2,3]triazolo[4,5-b]pyridin-6-yl)-N-(1-methyl-1H-pyrazol-5-yl)pyrimidin-2-amine]
